Test system: increased blood flow through the facial skin caused by endogenous CGRP
Test: Facial skin blood flow increase after trigeminal ganglion stimulation in marmosets (laser Doppler)
Assay type: in vivo
Details: anaesthetised marmosets; i.v. 5 min before the 2nd and 3rd stimulation periods; trigeminal ganglion stimulation 10Hz, 2 mA, 2 msec, for 30 sec
Excerpt: The efficacy of the following test substances was characterised by determining the dose administered i.v. which reduces by 50% the increased blood flow through the skin of the face which has been brought about by endogenous CGRP: • (A) =1-[N^2-[3,5-dibromo-N-[[4-(3,4-dihydro-2(1H)-oxoquinazolin-3-yl)-1-piperidinyl]carbonyl]-D-tyrosyl]-L-lysyl]-4-(4-pyridinyl)-piperazine, • (B) =1-[4-amino-3,5-dibromo-N-[[4-(2,3,4,5-tetrahydro-2(1 H)-oxo-1,3-benzodiazepin-3-yl)-1-piperidinyl]carbonyl]-D-phenylalanyl]-4-(1-piperidinyl)-piperidine, • (AC) =(R,S)-1-[4-[4-(3,4-dihydro-2(1H)-oxoquinazolin-3-yl)-1-piperidinyl]-2-[(3,5-dibromo-4-methylphenyl)methyl]-1,4-dioxobutyl]-4-(4-methyl-1-piperazinyl)-piperidine, • (AM) =1-[4-amino-3,5-dibromo-N-[[4-(3,4-dihydro-2(1H)-oxoquinazolin-3-yl)-1-piperidinyl]carbonyl]-D-phenylalanyl]-4-(1-piperidinyl)-piperidine, • (DA =sumatriptan and • (DB) =zolmitriptan. Description of Method:
Marmosets of both sexes (300-400 g) are anaesthetised with pentobarbital (initially with 30 mg/kg, i.p., followed by infusion of 6 mg/kg/h, […].). The body temperature is maintained at 37° C. using a heating plate. Pancurmium is administered as a muscle relaxant (initially 1 mg/kg, 0.5 mg after each hour thereafter). The animal's head is secured in a stereotactical apparatus. After the skin on the head has been opened using a lengthwise incision, a small hole is drilled in the skull and a bipolar electrode (Rhodes SNES 100) is lowered into the trigeminal ganglion.
The petrous bone serves as a guide for placing the electrode (CCX-Digital X-ray apparatus). The position of the electrode in the ganglion is monitored at the end of each experiment. The stimulation parameters are: • 10Hz, 2 mA, 2 msec, for 30 sec.
The blood flow in the micro-vessels of the facial skin is determined by laser Doppler flow measurement using a PeriFlux Laser Doppler System.
The animals are exposed to 2 to 3 stimulation periods at intervals of 30 min in each case. The first stimulation serves as a reference value for the other stimulations. The test substances are administered i.v. 5 min before the 2nd and 3rd stimulation periods.

SMILES	50% dose = i.v. dose which reduces by 50% the increased blood flow through the facial skin caused by endogenous CGRP [mg/kg]
Cc1c(Br)cc(C[C@H](CC(=O)N2CCC(N3Cc4ccccc4NC3=O)CC2)C(=O)N2CCC(N3CCN(C)CC3)CC2)cc1Br (racemic) [Substance AC, (R,S)-1-[4-[4-(3,4-dihydro-2(1H)-oxoquinazolin-3-yl)-1-piperidinyl]-2-[(3,5-dibromo-4-methylphenyl)methyl]-1,4-dioxobutyl]-4-(4-methyl-1-piperazinyl)-piperidine]	0.018
NCCCC[C@H](NC(=O)[C@@H](Cc1cc(Br)c(O)c(Br)c1)NC(=O)N1CCC(N2Cc3ccccc3NC2=O)CC1)C(=O)N1CCN(c2ccncc2)CC1 [Substance A, 1-[N^2-[3,5-dibromo-N-[[4-(3,4-dihydro-2(1H)-oxoquinazolin-3-yl)-1-piperidinyl]carbonyl]-D-tyrosyl]-L-lysyl]-4-(4-pyridinyl)-piperazine]	0.003
Nc1c(Br)cc(C[C@@H](NC(=O)N2CCC(N3Cc4ccccc4NC3=O)CC2)C(=O)N2CCC(N3CCCCC3)CC2)cc1Br [Substance AM, 1-[4-amino-3,5-dibromo-N-[[4-(3,4-dihydro-2(1H)-oxoquinazolin-3-yl)-1-piperidinyl]carbonyl]-D-phenylalanyl]-4-(1-piperidinyl)-piperidine]	0.046
Nc1c(Br)cc(C[C@@H](NC(=O)N2CCC(N3CCc4ccccc4NC3=O)CC2)C(=O)N2CCC(N3CCCCC3)CC2)cc1Br [Substance B, 1-[4-amino-3,5-dibromo-N-[[4-(2,3,4,5-tetrahydro-2(1H)-oxo-1,3-benzodiazepin-3-yl)-1-piperidinyl]carbonyl]-D-phenylalanyl]-4-(1-piperidinyl)-piperidine]	0.042
CNS(=O)(=O)Cc1ccc2[nH]cc(CCN(C)C)c2c1 [Substance DA, sumatriptan, reference compound]	0.280
CN(C)CCc1c[nH]c2ccc(C[C@H]3COC(=O)N3)cc12 [Substance DB, zolmitriptan, reference compound]	0.035
